Each compound was assayed on RSV A2 strain (assay: In vitro CPE (CytoPathic Effect) inhibition effect evaluation test, RSV type A). Details: human respiratory syncytial virus, HEp-2, 96 h, read-out: EC50, inhibitory effect against RSV type A (CPE inhibition).
Type: cell-based
Protocol: The test sample is diluted in advance to an appropriate concentration with DMSO, and 3-fold series of serial dilutions were prepared on a 384-well plate (0.32 μL/well). HEp-2 cells (CCL-23; ATCC) adjusted at appropriate number (2.4×10^5 cells/mL) in 2% FBS E-MEM (prepared by adding kanamycin and FBS to Eagle's Minimum Essential Medium; Invitrogen) were added at 12.5 μL/well to the 384-well plate previously aliquoted with the test samples. The RSV A2 strain was diluted to an appropriate concentration in a culture medium and added to the 384-well plate containing the test sample at 12.5 μL/well. The culture medium was added additionally to the 384-well plate, and the test was started with 50 μL/well. Control wells were prepared with only virus-free culture medium. The plate was incubated in a 5% CO2 incubator at 37° C. for 4 days, and the plate was then placed at room temperature for 30 minutes. CellTiter-Glo (registered trademark) 2.0 assay (Promega) was added at 15 μL/well, mixed for 30 seconds, and the plate was placed for approximately 1 hour. The luminescent signal was then measured by EnVision (PerkinElmer). The inhibitory effect of the test agents on RSV-induced CPE was calculated as 0% and 100% inhibition rate for each sample concentration based on the level of remaining viable cells by CellTiter-Glo (registered trademark) 2.0, with the EC50 value for each compound calculated by nonlinear regression as the concentration that inhibits RSV-induced CPE by 50%. In the case of evaluation against RSV type B, RSV B (Wash/18537 strain) was infected in the same manner as the type A, cultured for 5 days, and quantitated in the same manner as for the A2 strain.

Row | Structure (SMILES) | EC50 [µM]
1 | Cn1c(C2CCOCC2)c(-c2ccc(C(=O)NC3(C(=O)O)C4CC5CC(C4)CC3C5)c(C(F)(F)F)n2)c2ccc(OC3CCN(c4ncccn4)CC3)cc21 (stereo not shown) [Compound I-270] | 0.037

Same assay, conditions: human respiratory syncytial virus; inhibitory effect against RSV type A (RSV A2 strain), HEp-2 cells, CPE inhibition; read-out: EC50

Row | EC50 [µM] | Structure (SMILES)
2 | < 0.01 | O=C(NC1(C(=O)O)C2CC3CC(C2)CC1C3)c1cnc(N2CCc3cc(OCCC4CCOCC4)ccc32)nc1C(F)F (stereo not shown) [Compound I-157]
3 | < 0.01 | O=C(NC1(C(=O)O)CCCCC1)c1cnc(N2CCc3cc(C4=CCCN(c5ncccn5)C4)ccc32)nc1C(F)(F)F [Compound I-71]
4 | < 0.01 | O=C(O)/C=C/C1(NC(=O)c2cnc(N3CC4(CCOCC4)c4cc(OC5CCN(c6ncccn6)CC5)ccc43)nc2C(F)(F)F)C2CC3CC(C2)CC1C3 (stereo not shown) [Compound I-208]
5 | < 0.01 | CC(C)(C)C(NC(=O)c1cnc(-c2cn(C3CCC(F)(F)CC3)c3cc(OC4CCN(c5ncccn5)CC4)ccc23)nc1C(F)(F)F)C(=O)O (racemic) [Compound I-263]
6 | < 0.01 | O=C(NC1(C(=O)O)C2CC3CC(C2)CC1C3)c1cnc(N2CC3(CCOCC3)c3cc(-c4ccccc4)ccc32)nc1C(F)(F)F (stereo not shown) [Compound I-279]
7 | < 0.01 | O=C(NC1(C(=O)O)CCCCC1)c1cnc(N2CC3(CCN(C(=O)OCc4ccccc4)CC3)c3cc(OCCC4CCOCC4)ccc32)nc1C(F)(F)F [Compound I-61]
8 | < 0.01 | O=C(NC1(C(=O)O)C2CC3CC(C2)CC1C3)c1cnc(-c2cn(C3CCC(F)(F)CC3)c3cc(OC4CCN(CC(F)(F)C(F)F)CC4)ccc23)nc1C(F)(F)F (stereo not shown) [Compound I-409]
9 | < 0.01 | O=C(NC1(C(=O)O)C2CC3CC(C2)CC1C3)c1cnc(-c2cn(C3CCC(F)(F)CC3)c3cc(OC4CN(c5ncc(F)cn5)C4)ccc23)nc1C(F)(F)F (stereo not shown) [Compound I-387]
10 | < 0.01 | O=C(NC1(C(=O)O)C2CC3CC(C2)CC1C3)c1cnc(N2CC3(CCCCC3)c3c2ccc(OC2CCN(c4ncccn4)CC2)c3F)nc1C(F)(F)F (stereo not shown) [Compound I-439]
11 | < 0.01 | O=C(NC1(C(=O)O)C2CC3CC(C2)CC1C3)c1cnc(-c2cn(C3CCOC3)c3cc(OC4CCN(c5ncc(F)cn5)CC4)ccc23)nc1C(F)(F)F (racemic) [Compound I-410]
12 | 0.01 to 0.1 | O=C(NC1(C(=O)O)CCCCC1)c1cnc(N2CC3(CCOCC3)c3cc(OCCN4CCOCC4)ccc32)nc1C(F)(F)F [Compound I-85]
13 | < 0.01 | O=C(NC1(C(=O)O)C2CC3CC(C2)CC1C3)c1ccc(-c2cn(C3CCC(F)(F)CC3)c3cc(OC4CCN(C5COC5)CC4)ccc23)nc1C(F)(F)F (stereo not shown) [Compound I-240]
14 | < 0.01 | O=C(NC1(C(=O)O)C2CC3CC(C2)CC1C3)c1cnc(N2CC3(CCOCC3)c3cc(OCC(F)F)ccc32)nc1C(F)(F)F (stereo not shown) [Compound I-459]
15 | < 0.01 | O=C(NC1(C(=O)O)C2CC3CC(C2)CC1C3)c1ccc(-c2cn(C3CS(=O)(=O)C3)c3cc(OC4CCN(c5ncccn5)CC4)ccc23)nc1C(F)(F)F (stereo not shown) [Compound I-251]
16 | 0.01 to 0.1 | O=C(NC1(C(=O)O)CCCCC1)c1cnc(N2CCc3cc(OC4CCN(c5cccnc5)CC4)ccc32)nc1C(F)(F)F [Compound I-51]
17 | < 0.01 | O=C(NC1(C(=O)O)C2CC3CC(C2)CC1C3)c1cnc(-c2cn(C3CCC(F)(F)CC3)c3ccc(O[C@H]4CC[C@H](n5cccn5)CC4)cc23)nc1C(F)(F)F (stereo partly shown) [Compound I-232]
18 | < 0.01 | O=C(NC1(C(=O)O)CCCCC1)c1cnc(N2CC3(CCCCC3)c3cc(OCCC4CCOCC4)ccc32)nc1C(F)(F)F [Compound I-55]
19 | 0.01 to 0.1 | CNC(=O)C1(NC(=O)c2cnc(N3CC4(CCOCC4)c4cc(OC5CCN(c6ncccn6)CC5)ccc43)nc2C(F)(F)F)C2CC3CC(C2)CC1C3 (stereo not shown) [Compound I-173]

Row | EC50 [µM] | Structure (SMILES)
20 | < 0.01 | CC1(C)CCCC(NC(=O)c2cnc(-c3cn(C4CCC(F)(F)CC4)c4cc(OC5CCN(c6ncccn6)CC5)ccc34)nc2C(F)(F)F)(C(=O)O)C1 (racemic) [Compound I-262]
21 | < 0.01 | N#C[C@H]1CC[C@H](n2cc(-c3ccc(C(=O)NC4(C(=O)O)C5CC6CC(C5)CC4C6)c(C(F)(F)F)n3)c3ccc(OC4CCN(c5ncccn5)CC4)cc32)CC1 (stereo partly shown) [Compound I-185]
22 | < 0.01 | O=C(NC1(C(=O)O)C2CC3CC(C2)CC1C3)c1cnc(N2CCc3cc(OC4CCN(C5COC5)CC4)ccc32)nc1C(F)(F)F (stereo not shown) [Compound I-220]
23 | 0.01 to 0.1 | CC(F)(F)c1nc(N2CC3(CCCCC3)c3cc(OC4CCN(CC(F)(F)F)CC4)ccc32)nc(C(C)(F)F)c1C(=O)NC1(C(=O)O)C2CC3CC(C2)CC1C3 (stereo not shown) [Compound I-441]
24 | 0.01 to 0.1 | O=C(NC1(C(=O)O)C2CC3CC(C2)CC1C3)c1cnc(-c2cn(C3CCC(F)(F)CC3)c3ccc(OC4CCN(C5COC5)CC4)cc23)nc1C(F)(F)F (stereo not shown) [Compound I-225]
25 | < 0.01 | O=C(NC1(C(=O)O)CCCCC1)c1cnc(N2CC3(CCOCC3)c3nc(OC4CCN(c5ncccn5)CC4)ccc32)nc1C(F)(F)F [Compound I-108]
26 | 0.01 to 0.1 | CNC(=O)C1CC1c1ccc2c(c1)CCN2c1ncc(C(=O)NC2(C(=O)O)C3CC4CC(C3)CC2C4)c(C(F)(F)F)n1 (racemic) [Compound I-216]
27 | < 0.01 | O=C(NC1(C(=O)O)CCCCC1)c1cnc(N2CCc3cc(OC4CCN(CC(F)(F)F)CC4)ccc32)nc1C(F)(F)F [Compound I-34]
28 | < 0.01 | COCCCCOc1ccc2c(c1)CCN2c1ncc(C(=O)NC2(C(=O)O)C3CC4CC(C3)CC2C4)c(C(F)(F)F)n1 (stereo not shown) [Compound I-22]
29 | 0.1 to 5 | COc1cccc(COc2ccc3c(c2)CCN3c2ncc(C(=O)NC3(C(=O)O)CCOCC3)c(C(F)(F)F)n2)c1 [Compound I-14]
30 | < 0.01 | CCNC(=O)N1CCC2(CC1)CN(c1ncc(C(=O)NC3(C(=O)O)C4CC5CC(C4)CC3C5)c(C(F)(F)F)n1)c1ccc(C)cc12 (stereo not shown) [Compound I-138]
31 | < 0.01 | O=C(NC1(C(=O)O)C2CC3CC(C2)CC1C3)c1cnc(N2CC3(CCOCC3)c3cc(OC4CCN(c5ncccn5)CC4)ccc32)nc1C(F)(F)CO (stereo not shown) [Compound I-205]
32 | < 0.01 | O=C(NC1(C(=O)O)C2CC3CC(C2)CC1C3)c1ccc(-c2cn([C@H]3CC[C@@H](C(F)(F)F)CC3)c3cc(OC4CCN(c5ncccn5)CC4)ccc23)nc1C(F)(F)F (stereo partly shown) [Compound I-285]
33 | < 0.01 | O=C(NC1(C(=O)O)C2CC3CC(C2)CC1C3)c1ccc(N2CCc3cc(OCCC4CCOCC4)ccc32)cc1C(F)(F)F (stereo not shown) [Compound I-123]
34 | 0.01 to 0.1 | O=C(NC1(C(=O)O)CCC1)c1cnc(N2CCc3cc(OC4CCN(c5ncccn5)CC4)ccc32)nc1C(F)(F)F [Compound I-46]
35 | < 0.01 | CC(=O)N1CCC(Oc2ccc3c(-c4ncc(C(=O)NC5(C(=O)O)C6CC7CC(C6)CC5C7)c(C(F)(F)F)n4)cn(C4CCC(F)(F)CC4)c3c2)CC1 (stereo not shown) [Compound I-247]
36 | < 0.01 | Cc1ccc2c(c1)C1(CCOCC1)CN2c1ccc(C(=O)NC2(C(=O)O)C3CC4CC(C3)CC2C4)c(C(F)(F)F)n1 (stereo not shown) [Compound I-122]

Same assay, conditions: inhibitory effect against RSV type A (RSV A2 strain), HEp-2 cells, CPE inhibition; read-out: EC50

Row | EC50 [µM] | Structure (SMILES)
37 | < 0.01 | CCNC(=O)N1CCC2(C1)CN(c1ncc(C(=O)NC3(C(=O)O)C4CC5CC(C4)CC3C5)c(C(F)(F)F)n1)c1ccc(OC3CCN(c4ncccn4)CC3)cc12 (racemic) [Compound I-364]
38 | < 0.01 | N#Cc1ccc(-n2cc(-c3ccc(C(=O)NC4(C(=O)O)C5CC6CC(C5)CC4C6)c(C(F)(F)F)n3)c3ccc(OC4CCN(c5ncccn5)CC4)cc32)cc1 (stereo not shown) [Compound I-337]
39 | < 0.01 | COc1cccc(COc2ccc3c(n2)C2(CCOCC2)CN3c2ncc(C(=O)NC3(C(=O)O)C4CC5CC(C4)CC3C5)c(C(F)(F)F)n2)c1 (stereo not shown) [Compound I-104]
40 | < 0.01 | O=C(NC1(C(=O)O)C2CC3CC(C2)CC1C3)c1ccc(-c2cn(-c3ccccc3F)c3cc(OC4CCN(c5ncccn5)CC4)ccc23)nc1C(F)(F)F (stereo not shown) [Compound I-313]
41 | 0.1 to 5 | O=C(NC1(C(=O)O)C2CC3CC(C2)CC1C3)c1cnc(N2CC3(CCOCC3)c3cc(NS(=O)(=O)c4ccccc4)ccc32)nc1C(F)(F)F (stereo not shown) [Compound I-342]
42 | < 0.01 | O=C(NC1(C(=O)O)C2CC3CC(C2)CC1C3)c1ccc(-c2cn(-c3ccccc3C(F)(F)F)c3cc(OC4CCN(c5ncccn5)CC4)ccc23)nc1C(F)(F)F (stereo not shown) [Compound I-327]
43 | 0.01 to 0.1 | CN(c1ccc2c(c1)C1(CCOCC1)CN2c1ncc(C(=O)NC2(C(=O)O)C3CC4CC(C3)CC2C4)c(C(F)(F)F)n1)S(=O)(=O)c1ccccc1 (stereo not shown) [Compound I-344]

Row | Structure (SMILES) | EC50 [µM]
44 | O=C(NC1(C(=O)O)C2CC3CC(C2)CC1C3)c1cnc(-c2cn(C3CCC(F)CC3)c3cc(O[C@H]4CC[C@H](N5CC(F)(F)C5)CC4)ccc23)nc1C(F)(F)F (single isomer, unassigned) [Compound I-510] | < 0.01
45 | O=C(NC1(C(=O)O)C2CC3CC(C2)CC1C3)c1ccc(-c2cn(C3CCC(F)CC3)c3cc(OC4CCN(c5ncc(F)cn5)CC4)ccc23)nc1C(F)(F)F (single isomer, unassigned) [Compound I-398] | < 0.01
46 | Cn1ncc2c1CCC(Oc1ccc3c(c1)C1(CCOCC1)CN3c1ncc(C(=O)NC3(C(=O)O)C4CC5CC(C4)CC3C5)c(C(F)(F)F)n1)C2 (single isomer, unassigned) [Compound I-191] | < 0.01
